The results in this text go back to patent US20150098983A1, “Methods and Compositions for Treating Withdrawal Syndromes Using Non-Sedative Dexmedetomidine Transdermal Compositions” (Teikoku Pharma USA, Inc., priority 2013, published 2015).

SMILES strings stand for the structures. Where two headings read alike, the source gives them in different places.

Take `Cc1cccc([C@H](C)c2cnc[nH]2)c1C` [Dexmedetomidine]: the solubility of dexmedetomidine entry (in Duro-Tak 87-2979) is “less than 2%”; the solubility of dexmedetomidine (in Duro-Tak 387/87-2353 (acid functionalized acrylate adhesive)) was 10-15%; the solubility of dexmedetomidine entry (in hydroxyl functionalized acrylate polymer) is on record as “less than 1%”; the solubility of dexmedetomidine (in lauryl lactate) was in the range of 5 to 10%; the solubility of dexmedetomidine (in levulinic acid) is about 60%; the solubility of dexmedetomidine (in oleic acid) is on record as about 40%. The solubility of dexmedetomidine (in propylene glycolmonolaurate) fell in the range of 5 to 10%.
